From patent US11026991B2, “Compositions and methods of use thereof to promote muscle growth and function” (Worlds Greatest Ingredients, LP, priority 2018, dated 2021)

Tests used:
[1] = design: species or system human; conditions: in vivo
Experimental: Another exemplary study was done on a subject. The subject reported to the laboratory after an eight hour fast. Following and eight hour fast, the subject was given a standardized meal plan for two days prior to testing. The subject had their resting heart rate, blood pressure, body mass, height, and body measured using DEXA. Additionally, a urine sample was taken for baseline assessment of clinical safety, amino acid retention, and hydration status. A venous blood sample (10 mL) was be collected from a forearm vein prior to the subject being administrated, in a double-blind fashion a single dose of either leucine (2-gram dose), dileucine (2-gram dose) or leucine (1 grams)+dileucine (1 grams). Subsequent venous blood samples were to be collected 30, 60, 90, 120 and 240 minutes after ingestion of their assigned composition. After blood samples were taken the subject was given 250 mL of cold water to ingest. A second urine sample was taken at 240 minutes after ingestion of the composition. The methodology is shown schematically in FIG. 12.
All blood samples were processed to allow for determination of amino acid concentrations. […]
Plasma essential amino acids (threonine, methionine, lysine, histidine, valine, tryptophan, leucine, phenylalanine, isoleucine) were analyzed by LC/MS/MS and plasma dileucine was analyzed by GC/MS.

muscle protein synthesis = assay: Muscle protein synthesis from vastus lateralis biopsies (L-[ring-13C6]-phenylalanine incorporation); assay type: in vivo, human; conditions: 180 minutes post challenge, 2 g, versus subjects receiving leucine
Experimental: Another exemplary study was done to measure muscle protein synthesis. Two subjects came to the laboratory after a seven hour, overnight fast. A baseline blood sample was taken. Then a primed (2.0 μmol·kg−1), continuous infusion (0.05 μmol·kg−1·min−1) of L-[ring-13C6]-phenylalanine and L-[15N]-phenylalanine was started in one catheter.
Isotopes (from Cambridge Isotopes Inc., Andover, Mass.) were dissolved in 0.9% saline, filtered through a 0.2-μm filter, and infused using a calibrated syringe pump (from Harvard Apparatus, Holliston, Mass.). After obtaining steady-state enrichment, the L-[15N]-phenylalanine tracer infusion was stopped at t=0.
Repeated muscle biopsy sampling was done throughout the infusion trial for the determination of muscle protein synthesis (based on L-[ring-13C6]-phenylalanine incorporation) before and after the ingestion of 2 g leucine or 2 g dileucine. Biopsies (˜100 mg wet weight) were obtained from the middle region of the vastus lateralis under anesthetic (Lidocaine HCl 1%) with a 5 mm Bergstrom needle custom-modified for manual suction. A schematic representation of the experimental protocol can be found in FIG. 15.

[2] = Case study: plasma amino acids after ingestion of 2 g di-leucine (Ce) or 2 g leucine (C4); conditions: for increase in plasma lysine, times greater than the other condition: Ce over C4
Experimental: The subject came into the laboratory fasted prior to the testing days. […] On Day 1, they were randomized to consume 1 of the 2 conditions. Following, consumption of the fluid mixture (8 oz. water), plasma amino acids were measured at 30, 60, 90, and 120 minutes. A 72-hour washout took place followed by the 2nd condition following the same procedures.
The dosage used in this study was either 2 grams of di-leucine (condition Ce) or 2 grams of leucine (condition C4).

CC(C)C[C@H](NC(=O)[C@@H](N)CC(C)C)C(=O)O [Ce, L-Leucyl-L-leucine]
plasma dileucine levels [1]: measurable increases
myofibrillar FSR (muscle protein synthesis) (muscle protein synthesis): significantly increased
increases in total EAA concentration relative to baseline (range) ([2]; 30 and 60 mPost): 7.2% to 26.9%
increase in total EAA concentration, times greater than Condition C4 ([2]; 30 mPost): 4 ×
increase in total plasma BCAAs, times greater than Condition C4 ([2]; 30 mPost): 2.9 ×
Plasma Isoleucine Delta Change Relative to Baseline Values ([2]; 30 mPost ingestion of 2 g): -11.31 nmol/L
Plasma Isoleucine Percent Change Relative to Baseline Values ([2]; 30 mPost ingestion of 2 g): −16.0%
Plasma Lysine Delta Change Relative to Baseline Values ([2]; 30 mPost ingestion of 2 g): 39.97 nmol/L
Plasma Lysine Percent Change Relative to Baseline Values ([2]; 30 mPost ingestion of 2 g): 29.7%
Plasma Methionine Delta Change Relative to Baseline Values ([2]; 30 mPost ingestion of 2 g): 2.32 µM
Plasma Methionine Percent Change Relative to Baseline Values ([2]; 30 mPost ingestion of 2 g): 10.1%
Plasma Phenylalanine Delta Change Relative to Baseline Values ([2]; 30 mPost ingestion of 2 g): 3.55 nmol/L
Plasma Phenylalanine Percent Change Relative to Baseline Values ([2]; 30 mPost ingestion of 2 g): 6.0%
Plasma Threonine Delta Change Relative to Baseline Values ([2]; 30 mPost ingestion of 2 g): 7.09 µM
Plasma Tryptophan Delta Change Relative to Baseline Values ([2]; 30 mPost ingestion of 2 g): -0.83 nmol/L
Plasma Tryptophan Percent Change Relative to Baseline Values ([2]; 30 mPost ingestion of 2 g): −1.3%
Plasma Valine Delta Change Relative to Baseline Values ([2]; 30 mPost ingestion of 2 g): -13.31 nmol/L
Plasma Valine Percent Change Relative to Baseline Values ([2]; 30 mPost ingestion of 2 g): −3.6%
Total Plasma BCAA Delta Change Relative to Baseline Values ([2]; 30 mPost ingestion of 2 g): 213 µM
Total Plasma BCAA Percent Change Relative to Baseline Values ([2]; 30 mPost ingestion of 2 g): 35.7%
Total Plasma EAA Delta Change Relative to Baseline Values ([2]; 30 mPost ingestion of 2 g): 265.57 nmol/L
Total Plasma EAA Percent Change Relative to Baseline Values ([2]; 30 mPost ingestion of 2 g): 26.9%
increase in plasma lysine, times greater than the other condition ([2]; 30 mPost): 2.8 ×
Plasma Isoleucine Delta Change Relative to Baseline Values ([2]; 60 mPost ingestion of 2 g): -14.21 nmol/L
Plasma Isoleucine Percent Change Relative to Baseline Values ([2]; 60 mPost ingestion of 2 g): −20.1%
Plasma Lysine Delta Change Relative to Baseline Values ([2]; 60 mPost ingestion of 2 g): 41.31 nmol/L
Plasma Lysine Percent Change Relative to Baseline Values ([2]; 60 mPost ingestion of 2 g): 30.7%
Plasma Methionine Delta Change Relative to Baseline Values ([2]; 60 mPost ingestion of 2 g): 1.01 µM
Plasma Methionine Percent Change Relative to Baseline Values ([2]; 60 mPost ingestion of 2 g): 4.4%
Plasma Phenylalanine Delta Change Relative to Baseline Values ([2]; 60 mPost ingestion of 2 g): 2.02 nmol/L
Plasma Phenylalanine Percent Change Relative to Baseline Values ([2]; 60 mPost ingestion of 2 g): 3.4%
Plasma Threonine Delta Change Relative to Baseline Values ([2]; 60 mPost ingestion of 2 g): 6.11 µM
Plasma Tryptophan Delta Change Relative to Baseline Values ([2]; 60 mPost ingestion of 2 g): -5.10 nmol/L
Plasma Tryptophan Percent Change Relative to Baseline Values ([2]; 60 mPost ingestion of 2 g): −7.9%
Plasma Valine Delta Change Relative to Baseline Values ([2]; 60 mPost ingestion of 2 g): -52.63 nmol/L
Plasma Valine Percent Change Relative to Baseline Values ([2]; 60 mPost ingestion of 2 g): −14.1%
Total Plasma BCAA Delta Change Relative to Baseline Values ([2]; 60 mPost ingestion of 2 g): 26 µM
Total Plasma BCAA Percent Change Relative to Baseline Values ([2]; 60 mPost ingestion of 2 g): 4.3%
Total Plasma EAA Delta Change Relative to Baseline Values ([2]; 60 mPost ingestion of 2 g): 71.33 nmol/L
Total Plasma EAA Percent Change Relative to Baseline Values ([2]; 60 mPost ingestion of 2 g): 7.2%
increase in plasma lysine, times greater than the other condition ([2]; 60 mPost): 5.7 ×
Plasma Isoleucine Delta Change Relative to Baseline Values ([2]; 90 mPost ingestion of 2 g): -26.67 nmol/L
Plasma Isoleucine Percent Change Relative to Baseline Values ([2]; 90 mPost ingestion of 2 g): −37.7%
Plasma Lysine Delta Change Relative to Baseline Values ([2]; 90 mPost ingestion of 2 g): -25.31 nmol/L
Plasma Lysine Percent Change Relative to Baseline Values ([2]; 90 mPost ingestion of 2 g): −18.8%
Plasma Methionine Delta Change Relative to Baseline Values ([2]; 90 mPost ingestion of 2 g): -0.00173 µM
Plasma Methionine Percent Change Relative to Baseline Values ([2]; 90 mPost ingestion of 2 g): −7.5%
Plasma Phenylalanine Delta Change Relative to Baseline Values ([2]; 90 mPost ingestion of 2 g): -5.98 nmol/L
Plasma Phenylalanine Percent Change Relative to Baseline Values ([2]; 90 mPost ingestion of 2 g): −10.1%
Plasma Threonine Delta Change Relative to Baseline Values ([2]; 90 mPost ingestion of 2 g): -0.0034 µM
Plasma Threonine Percent Change Relative to Baseline Values ([2]; 90 mPost ingestion of 2 g): −3.2%
Plasma Tryptophan Delta Change Relative to Baseline Values ([2]; 90 mPost ingestion of 2 g): -6.60 nmol/L
Plasma Tryptophan Percent Change Relative to Baseline Values ([2]; 90 mPost ingestion of 2 g): −10.2%
Plasma Valine Delta Change Relative to Baseline Values ([2]; 90 mPost ingestion of 2 g): -79.42 nmol/L
Plasma Valine Percent Change Relative to Baseline Values ([2]; 90 mPost ingestion of 2 g): −21.3%
Total Plasma BCAA Delta Change Relative to Baseline Values ([2]; 90 mPost ingestion of 2 g): -0.07162 µM
Total Plasma BCAA Percent Change Relative to Baseline Values ([2]; 90 mPost ingestion of 2 g): −12.0%
Total Plasma EAA Delta Change Relative to Baseline Values ([2]; 90 mPost ingestion of 2 g): -114.65 nmol/L
Total Plasma EAA Percent Change Relative to Baseline Values ([2]; 90 mPost ingestion of 2 g): −11.6%
Plasma Isoleucine Delta Change Relative to Baseline Values ([2]; 120 mPost ingestion of 2 g): -24.37 nmol/L
Plasma Isoleucine Percent Change Relative to Baseline Values ([2]; 120 mPost ingestion of 2 g): −34.4%
Plasma Lysine Delta Change Relative to Baseline Values ([2]; 120 mPost ingestion of 2 g): 25.68 nmol/L
Plasma Lysine Percent Change Relative to Baseline Values ([2]; 120 mPost ingestion of 2 g): 19.1%
Plasma Methionine Delta Change Relative to Baseline Values ([2]; 120 mPost ingestion of 2 g): -0.00168 µM
Plasma Methionine Percent Change Relative to Baseline Values ([2]; 120 mPost ingestion of 2 g): −7.3%
Plasma Phenylalanine Delta Change Relative to Baseline Values ([2]; 120 mPost ingestion of 2 g): -1.89 nmol/L
Plasma Phenylalanine Percent Change Relative to Baseline Values ([2]; 120 mPost ingestion of 2 g): −3.2%
Plasma Threonine Delta Change Relative to Baseline Values ([2]; 120 mPost ingestion of 2 g): -0.00207 µM
Plasma Threonine Percent Change Relative to Baseline Values ([2]; 120 mPost ingestion of 2 g): −1.9%
Plasma Tryptophan Delta Change Relative to Baseline Values ([2]; 120 mPost ingestion of 2 g): -13.23 nmol/L
Plasma Tryptophan Percent Change Relative to Baseline Values ([2]; 120 mPost ingestion of 2 g): −20.5%
Plasma Valine Delta Change Relative to Baseline Values ([2]; 120 mPost ingestion of 2 g): -85.53 nmol/L
Plasma Valine Percent Change Relative to Baseline Values ([2]; 120 mPost ingestion of 2 g): −22.9%
Total Plasma BCAA Delta Change Relative to Baseline Values ([2]; 120 mPost ingestion of 2 g): -0.06614 µM
Total Plasma BCAA Percent Change Relative to Baseline Values ([2]; 120 mPost ingestion of 2 g): −11.1%
Total Plasma EAA Delta Change Relative to Baseline Values ([2]; 120 mPost ingestion of 2 g): -59.34 nmol/L
Total Plasma EAA Percent Change Relative to Baseline Values ([2]; 120 mPost ingestion of 2 g): −6.0%
